Test results reported in US8178688B2, “Benzamidine derivatives, process for the preparation thereof and pharmaceutical composition comprising the same” (Dong Wha Pharmaceutical Co., Ltd., priority 2004, dated 2012).
Marks after values point to notes of the source that are not given here.

Experiments:
ovariectomized ddY mouse = experiment: Therapeutic effect in the ovariectomized osteoporetic mouse model (trabecular bone volume of the femur); assay type: in vivo, ddY mice; conditions: 50 mg/kg/day oral gavage for 4 weeks from 4 weeks after ovariectomy, salts (methansulfonic acid or HCl); for change in vivo at 50 mg/kg: Mus musculus, 672 h, read-out: Changes on TBV (% changes vs vehicle control)
In short: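 Female ddY mice, bilaterally ovariectomized; benzamidine salts (methanesulfonate or HCl) given orally at 50 mg/kg/day for 4 weeks, starting 4 weeks post-surgery. Femoral trabecular bone volume (%) measured histomorphometrically on H&E sections of trochlea epiphyseal region; reported as percentage change versus vehicle control.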

[1] = system: rat models subjected to rib fracture; experiment: Effect of promoting fracture healing in rib fracture-induced rat model (callus volume, callus osteoid volume); assay type: in vivo, SD rats; conditions: for Changes on callus volume (mm^3): 200 mg/kg oral once a day for 2 weeks from day 2 of surgery, 8th and 9th ribs, vehicle control 37.22 ± 8.23; for Changes on callus osteoid volume (OV/callus, %): 200 mg/kg oral once a day for 2 weeks, 8th rib, vehicle control 35.88 ± 5.06
Description: The benzamidine compounds were assayed for therapeutic effect on bone fracture in rat models subjected to rib fracture. Benzamidine derivates are dosed from 2 days after operation for 2 weeks, and the changes on the volume and histology of callus were observed.
A total of 54 SD rats (8 weeks old upon receipt, Jung Ang Lab. Animal Co., Korea) were used. While being housed at a density of three to a plastic cage, the experimental animals were kept in a breeding room under controlled temperature (20-25° C.) and humidity (30-35%). Under light-dark cycles of 12 hours, the rats were allowed to have free access to feedstuff and tap water.
200 mg of benzamidine compounds (Methansulfonic acid or Hydrochloride) were completely dissolved in 5 ml of sterilized distilled water. The benzamidine derivatives in the solutions was orally administered at doses of 200 mg per kg of body weight once a day for 2 weeks from day 2 of the surgery.
8th and 9th rib of each animal was exposed by general operation under ketamine HCl and xylazine HCl anesthesia, and the exposed ribs were crossly dissected using surgical scissors. After rib-fracture, surgical wounds were closed with general skin suture.
8th and 9th ribs of each animal were separated at sacrifice and then the long axis and short axis of callus were calculated as mm units. The volume of callus was calculated as following Equation 2. Callus volume(mm^3)=(a×b^2)/2 Equation 2 • a: long diameter of bony callus • b: short diameter of bony callus
The 8th rib including fracture sites of each rat was separated and fixed in 10% neutral buffered formalin, and then decalcified in decalcifying solution (24.4% formic acid, and 0.5N sodium hydroxide) for 5 days (mixed decalcifying solution was exchanges once a day for 5 days). After decalcification, the rib was embedded in paraffin, sectioned (3˜4 μm) and stained with hematoxylin-eosin or Masson's trichrome for composition of callus observation.
Osteloid volume (OV/callus) in callus regions of prepared histological specimens were detected as % levels using automated image analysis (analySIS Image Processing; SIS, Germany) under microscopy.

[2] = system: mouse models of ovalbumin-induced asthma; experiment: Therapeutic effect in mouse model of asthma induced with ovalbumin (lung weight, total leukocytes in blood and BALF); assay type: in vivo, C57BL/6 mice; conditions: for Changes on the lung weight, Relative (%) / Total leukocytes in peripheral blood (×10^3/1 mm^3) / Total leukocytes in BALF (×10^5/1 ml): 200 mg/kg oral once a day; for Changes on the lung weight, Relative (%): % of body weight, vehicle control 0.780 ± 0.103, sham 0.694 ± 0.049; for Total leukocytes in peripheral blood (×10^3/1 mm^3): vehicle control 14.49 ± 0.88, sham 10.27 ± 0.93; for Total leukocytes in BALF (×10^5/1 ml): vehicle control 75.68 ± 4.67, sham 51.75 ± 2.15
Description: The benzamidine compounds were assated for therapeutic effect on allergic inflammation in mouse models of ovalbumin-induced asthma. Starting on the day of immunization the benzamidine compounds were dosed for 17 consecutive days. The experimental animals were re-exposed to ovalbumin 14 days after the sensitization and then sacrificed 3 days after the re-exposure. Changes in lung weight, cellular components of peripheral blood and bronchoalveolar lavage fluid, and lung histopathology were observed.
A total of 110 female C57BL/6 mice (7-week-old, SLC, Japan) were adapted to a laboratory environment for 6 days before being used in earnest experiments. While being housed at a densirt of five in a plastic cage, the experimental animals were breed in a breeding room with controlled temperature (20-25° C.) and humidity (30-35%). Under light-dark cycles of 12 hours, mice were allowed to have free access to feedstuff and tap water. While asthma was induced in 100 mice by ovalbumin, 10 mice were used as a non-treated group.
200 mg of benzamidine compounds (Methansulfonic acid or Hydrochloride) were completely dissolved in 5 ml of sterilized distilled water. The benzamidine compound in the solutions was orally administered at doses of 200 mg per kg of body weight once a day from the day of the sensitization with ovalbumin. The control group was administered with equal volumes of sterilized distilled water in the same manner.
A solution of 200 μg of ovalbumin (Grade VI; Sigma, st. Louis, Mo., USA) and 180 mg of aluminium hydroxide (Al(OH)3, dried powder gel; Aldrich, Milwaukee, USA) in 4 ml of physiological saline was allowed to stand at 4° C. overnight and was administered to the experimental animals (200 μl, abdominal injection) for sensitization. As for the non-treated group, a solution of only aluminium hydroxide in saline was injected. 15 days after sensitization, a 1.5% ovalbumin solution was sprayed in air using a nebulizer, followed by exposing the experimental animals to the spray for 10 min to induce asthma therein. The non-treated group was exposed only to saline in the same manner. All the experimental animals were sacrificed 3 days after the exposure.
On the final day of experiment, the lungs were separated form adjacent organs. The removed lungs were weight among individual animals, the relative weight of the lungs was calculated as a percentage of body weight using the following Equation 3. Relative weight of Lung(%)=(Absolute lung weight/Body weight)×100 Equation 3
On the final day of experiment, all the experimental animals were etherized and underwent laparotomy to expose the abdominal vena cava, from which 1 ml of blood was the taken. Using a hemocytometer, a blood sample was measured for total leukocyte counts in a ×10^3/1 mm^3 units.
On the final day of experiment, secretions present in bronchi and alveola were examined for cyrological constitution. After veing etherized, the experimental animals were operated to open the cervical region and the thorax. The jugular vein was allowed to bleed, followed by endotracheal intubation. 3 ml of phosphate buffered saline was injected twice through the tube and the thorax was massaged for 30 sec to obtain cell suspension from the lungs. Using a hemocytometer, a […] was measured for total leukocyte counts in a ×10^5/1 ml units.

[3] = 200 mg/kg oral once a day from sensitization, vehicle control 0.134 ± 0.012, sham 0.110 ± 0.009

## Cc1sc(-c2cccnc2)nc1-c1ccc(OCCCCCOc2ccc(C(=N)NO)cc2)cc1 [Example 13, N-hydroxy-4-(5-[4-(5-methyl-2-pyridin-3-yl-1,3-thiazol-4-yl)phenoxy]pentoxy)-benzamidine]
Ovariectomized ddY mouse
  change in vivo at 50 mg/kg: 82%
[1]
  Changes on callus volume (mm^3): 23.15 ± 7.85* mm^3
  Changes on callus osteoid volume (OV/callus, %): 43.19 ± 4.47 %
[2]; [3]
  Changes on the lung weight, Absolute: 0.108 ± 0.009 g
[2]
  Changes on the lung weight, Relative (%): 0.695 ± 0.075%
  Total leukocytes in peripheral blood (×10^3/1 mm^3): 14.06 ± 1.07 ×10^3/1 mm^3
  Total leukocytes in BALF (×10^5/1 ml): 72.75 ± 4.88 ×10^5/1 ml

## CC(C)c1nc(-c2ccc(OCCCCCOc3ccc(C(=N)NO)cc3)cc2)c(CC2CCCC2)s1 [Example 47, N-hydroxy-4-(5-[4-(5-cyclopentylnnethyl-2-isopropyl-1,3-thiazol-4-yl)phenoxy]pentoxy)-benzamidine]
Ovariectomized ddY mouse
  Changes on TBV (% changes vs vehicle control): 139.8%
[1]
  Changes on callus volume (mm^3): 27.56 ± 6.94** mm^3
  Changes on callus osteoid volume (OV/callus, %): 45.69 ± 7.07%
[2]; [3]
  Changes on the lung weight, Absolute (g): 0.122 ± 0.010 ## g
[2]
  Changes on the lung weight, Relative (%): 0.706 ± 0.059%
  Total leukocytes in peripheral blood (×10^3/1 mm^3): 12.55 ± 1.35 # ×10^3/1 mm^3
  Total leukocytes in BALF (×10^5/1 ml): 62.40 ± 7.56 # ×10^5/1 ml

## CCCN(CCC)c1nc(-c2ccc(OCCCCCOc3ccc(C(=N)NO)cc3)cc2)c(CC)s1 [Example 138, N-hydroxy-4-(5-[4-(2-dipropylamino-5-ethyl-1,3-thiazol-4-yl)phenoxy]pentoxy)-benzamidine]
Ovariectomized ddY mouse
  change in vivo at 50 mg/kg: 164%
[1]
  Changes on callus volume (mm^3): 27.34 ± 5.46* mm^3
  Changes on callus osteoid volume (OV/callus, %): 53.83 ± 7.84 %
[2]; [3]
  Changes on the lung weight, Absolute: 0.113 ± 0.011 g
[2]
  Changes on the lung weight, Relative (%): 0.691 ± 0.065 %
  Total leukocytes in peripheral blood (×10^3/1 mm^3): 13.60 ± 0.83 # ×10^3/1 mm^3
  Total leukocytes in BALF (×10^5/1 ml): 68.83 ± 5.29 ## ×10^5/1 ml
